Results as given in patent publication US12084473B2, “β-D-2′-deoxy-2′-α-fluoro-2′-β-C-substituted-2-modified-N6-substituted purine nucleotides for HCV treatment” (Atea Pharmaceuticals, Inc., priority 2015, dated 2024).
Read-outs that look alike come from different tables or passages of the source.

How the values were obtained:
[1] = Cytotoxicity by XTT staining in replicon cells; details: human
Method: (§1) The plates were cultured for 24 hours prior to the addition of compounds. Six serial one half log dilutions of the test articles (high test concentration of 100.0 μM or high test concentration of 1.0 μM) and human interferon-alpha2b (high test 10.0 U/ml) were prepared in cell culture medium and added to the cultured cells in triplicate wells for each dilution. Six wells in the test plates received medium alone as an untreated control. Following 72 hours of culture in the presence of compound, one of the plates was used for the determination of cytotoxicity by staining with XTT and the other for antiviral efficacy by determination of luciferase reporter activity. Cytotoxicity and efficacy data were collected and imported into a customized Excel workbook for determination of the TC50 and EC50 values. […] The y-axis is the percent of virus control and the x-axis is the concentration of drug in μM. […] The y-axis is the percent of virus control and the x-axis is the concentration of drug in M.

[2] = tested on: HCV genotype 1b luciferase reporter replicon; experiment: microbe, parasite or virus in culture; assay type: cell-based; details: Hepatitis C virus, HuH-7-Luc/Neo-ET, 72 h, read-out: HCV Replicon EC50/EC95: EC50
[3] = tested on: HCV genotype 1b luciferase reporter replicon; experiment: microbe, parasite or virus in culture; assay type: cell-based
Method: as §1

[4] = tested on: micro-patterned human hepatocyte co-cultures; experiment: Human Hepatocyte Co-Cultures (HepatoPac): cytotoxicity and hepatocyte health; assay type: cell-based; details: for IC50: Homo sapiens, Hepatocyte
Method: Cytotoxicity and hepatocyte health were assessed in triplicate by measuring ALT leakage, urea production, albumin secretion and cellular ATP contents in micro-patterned human hepatocyte co-cultures (HepatoPac®, Hepregen Corporation) prepared by seeding cryopreserved human hepatocytes (single donor) and 3T3 J2 mouse fibroblasts in microtiter plates according to procedures established by Hepregen. Culture media was replaced with fresh media containing TA, test article, (0, 1, 10 or 30 μM) every 2 or 3 days through day 16. […] Cellular ATP levels were measured on days 9 and 21. ATP signals in stromal-only control cultures (murine 3T3 fibroblasts) were subtracted from those of human HepatoPac co-cultures to obtain hepatocyte-specific effects. See, Table 4, 5 and 6 below.

[5] = Hepatitis C virus; Huh-7 luc/neo ET cells, 72 hours, luciferase; read-out: HCV Replicon EC50/EC95: EC95
[6] = Hepatitis C virus; read-out: EC50 in a replicon assay
[7] = listed as stabilized phosphate prodrug (phosphoramidate) of β-D-2′-deoxy-2′-α-fluoro-2′-β-
[8] = listed as stabilized racemic phosphate prodrug (phosphoramidate) of β-D-2′-deoxy-2′-α-fluo
[9] = Hepatitis C virus, parent nucleosides; read-out: EC50 in a replicon assay

Row | Structure (SMILES) | CC50 at 72 h [1] [µM] | EC50 [2] [µM] | EC95 [3, 5] [µM] | other results
1 | C[C@@]1(F)[C@H](O)C(CO)O[C@H]1n1cnc2c(N)nc(N)nc21 (stereo partly shown) | > 100 | 6.7 |  | 
2 | CC(C)OC(=O)[C@H](C)NP(=O)(OCC1O[C@@H](n2cnc3c(N)nc(N)nc32)[C@](C)(F)[C@@H]1O)Oc1ccccc1 (stereo partly shown) | > 100 | 2.1 | 9.04 | Fold increase in activity compared to parent nucleoside ([3]; Table 7): 3
3 | CC(C)OC(=O)[C@H](C)N[P@@](=O)(OCC1O[C@@H](n2ccc(=O)[nH]c2=O)[C@](C)(F)[C@@H]1O)Oc1ccccc1 (stereo partly shown) | > 100 | 0.052 | 0.31 | 
4 | CCOc1nc(N)nc2c1ncn2[C@@H]1O[C@@H]2CO[P@](=O)(OC(C)C)O[C@H]2[C@@]1(C)F | > 100 | 0.045 | 0.259 | 
5 | CNc1nc(N)nc2c1ncn2[C@@H]1OC(COP(=O)(N[C@@H](C)C(=O)OC(C)C)Oc2ccccc2)[C@@H](O)[C@@]1(C)F (mixture of isomers) [Compound 5, isopropyl ((((R,S)-(2R,3R,4R,5R)-5-(2-amino-6-(methylamino)-9H-purin-9-yl)-4-fluoro-3-hydroxy-4-methyltetrahydrofuran-2-yl)methoxy)-phenoxy-phosphoryl)-L-alaninate] | > 100 | 0.026 | 0.124 | EC50 [3, 6]: 0.026 µM; Fold increase in activity compared to parent nucleoside ([3]; Table 7): >600; fold increase in activity (versus parent nucleoside) [3, 7]: ≥ 870; fold increase in activity (versus parent nucleoside) [3, 8]: ≥ 600
6 | CC(C)OC(=O)[C@H](C)NP(=O)(OCC1O[C@@H](n2cnc3c(N(C)C)nc(N)nc32)[C@](C)(F)[C@@H]1O)Oc1ccccc1 (mixture of isomers) [Compound 7, isopropyl ((((R,S)-(2R,3R,4R,5R)-5-(2-amino-6-(dimethylamino)-9H-purin-9-yl)-4-fluoro-3-hydroxy-4-methyltetrahydrofuran-2-yl)methoxy)-phenoxy-phosphoryl)-L-alaninate] | > 100 | 0.0121 | 0.071 | EC50 [3, 6]: 0.012 µM; Fold increase in activity compared to parent nucleoside ([3]; Table 7): >890; fold increase in activity (versus parent nucleoside) [3, 7]: > 1,300; fold increase in activity (versus parent nucleoside) [3, 8]: > 890
7 | CNc1nc(N)nc2c1ncn2[C@@H]1O[C@H](CO)[C@@H](O)[C@@]1(C)F [Compound 4, (2R,3R,4R,5R)-5-(2-amino-6-(methylamino)-9H-purin-9-yl)-4-fluoro-2-(hydroxymethyl)-4-methyltetrahydrofuran-3-ol] | > 100 | 15.7 |  | EC50 [3, 9]: 15.7 µM
8 | CNc1nc(N)nc2c1ncn2[C@@H]1OC(CO[P@](=O)(N[C@@H](C)C(=O)OC(C)C)Oc2ccccc2)[C@@H](O)[C@@]1(C)F (stereo partly shown) [Compound 5-1] | > 100 | 0.0551 | 0.282 | Fold increase in activity compared to parent nucleoside ([3]; Table 7): >280
9 | CN(C)c1nc(N)nc2c1ncn2[C@@H]1O[C@H](CO)[C@@H](O)[C@@]1(C)F [Compound 6, (2R,3R,4R,5R)-5-(2-amino-6-(dimethylamino)-9H-purin-9-yl)-4-fluoro-2-(hydroxymethyl)-4-methyltetrahydrofuran-3-ol] | > 100 | 10.7 |  | EC50 [3, 9]: 10.7 µM
10 | CN(c1nc(N)nc2c1ncn2[C@@H]1O[C@H](CO)[C@@H](O)[C@@]1(C)F)C1CC1 [Compound 8, (2R,3R,4R,5R)-5-(2-Amino-6-(N-methyl-cyclopropylamino)-9H-purin-9-yl)-4-fluoro-2-(hydroxymethyl)-4-methyltetrahydrofuran-3-ol] | > 100 | 5.56 |  | 
11 | CC(C)OC(=O)[C@H](C)NP(=O)(OCC1O[C@@H](n2cnc3c(N(C)C4CC4)nc(N)nc32)[C@](C)(F)[C@@H]1O)Oc1ccccc1 (stereo partly drawn) [Compound 9, isopropyl ((((R,S)-(2R,3R,4R,5R)-5-(2-amino-6-(N-methyl-cyclopropylamino)-9H-purin-9-yl)-4-fluoro-3-hydroxy-4-methyltetrahydrofuran-2-yl)methoxy)-phenoxy-phosphoryl)-L-alaninate] | > 100 | 0.0091 | 0.054 | EC50 ([3]; Hepatitis C virus, read-out: EC50 in a replicon assay): 0.007 µM; Fold increase in activity compared to parent nucleoside ([3]; Table 7): >600
12 | CNc1nc(NC(=O)C(C)C)nc2c1ncn2[C@@H]1O[C@H](CO)[C@@H](O)[C@@]1(C)F [Compound 15, (2R,3R,4R,5R)-5-(2-isobutyramido-6-methylamino-9H-purin-9-yl)-4-fluoro-2-(hydroxymethyl)-4-methyltetrahydrofuran-3-ol] | > 100 | > 100 |  | 
13 | CNc1nc(NC(=O)C(C)C)nc2c1ncn2[C@@H]1OC(COP(=O)(N[C@@H](C)C(=O)OC(C)C)Oc2ccccc2)[C@@H](O)[C@@]1(C)F (stereo partly drawn) [Compound 16, isopropyl ((((R,S)-(2R,3R,4R,5R)-5-(2-isobutyramido-6-methylamino-9H-purin-9-yl)-4-fluoro-3-hydroxy-4-methyltetrahydrofuran-2-yl)methoxy)-phenoxy-phosphoryl)-L-alaninate] | > 100 | 0.576 | 3.69 | 
14 | CCN(C)c1nc(N)nc2c1ncn2[C@@H]1O[C@H](CO)[C@@H](O)[C@@]1(C)F [Compound 17, (2R,3R,4R,5R)-5-(2-amino-6-(N-methyl-ethylamino)-9H-purin-9-yl)-4-fluoro-2-(hydroxymethyl)-4-methyltetrahydrofuran-3-ol] | > 100 | 11.5 | 65.4 | 
15 | CCN(C)c1nc(N)nc2c1ncn2[C@@H]1OC(COP(=O)(N[C@@H](C)C(=O)OC(C)C)Oc2ccccc2)[C@@H](O)[C@@]1(C)F (stereo partly drawn) [Compound 18, isopropyl ((((R,S)-(2R,3R,4R,5R)-5-(2-amino-6-(N-methyl-ethylamino)-9H-purin-9-yl)-4-fluoro-3-hydroxy-4-methyltetrahydrofuran-2-yl)methoxy)-phenoxy-phosphoryl)-L-alaninate] | 90 | 0.048 | 0.219 | 
16 | CCCN(C)c1nc(N)nc2c1ncn2[C@@H]1O[C@H](CO)[C@@H](O)[C@@]1(C)F [Compound 19, (2R,3R,4R,5R)-5-(2-amino-6-(N-methyl-propylamino)-9H-purin-9-yl)-4-fluoro-2-(hydroxymethyl)-4-methyltetrahydrofuran-3-ol] | > 100 | 7.47 |  | 
17 | CCCN(C)c1nc(N)nc2c1ncn2[C@@H]1OC(COP(=O)(N[C@@H](C)C(=O)OC(C)C)Oc2ccccc2)[C@@H](O)[C@@]1(C)F (stereo partly drawn) [Compound 20, isopropyl ((((R,S)-(2R,3R,4R,5R)-5-(2-amino-6-(N-methyl-propylamino)-9H-purin-9-yl)-4-fluoro-3-hydroxy-4-methyltetrahydrofuran-2-yl)methoxy)-phenoxy-phosphoryl)-L-alaninate] | > 100 | 0.073 | 0.315 | 
18 | COc1nc(N)nc2c1ncn2[C@@H]1O[C@H](COP(=O)(N[C@@H](C)C(=O)OCC(C)(C)C)Oc2cccc3ccccc23)[C@@H](O)[C@@]1(C)O (stereo partly shown) [INX-189] |  |  |  | IC50 ([4]; 48 h, Table 5, Day 2, read-out: Effect on Albumin Secretion, 50% Inhibitory Concentration (IC50)): 13.6 µM; IC50 ([4]; 48 h, Table 6, Day 2, read-out: Effect on Albumin Secretion, 50% Inhibitory Concentration (IC50)): > 30 µM; IC50 ([4]; 120 h, Table 5, Day 5, read-out: Effect on Albumin Secretion, 50% Inhibitory Concentration (IC50)): 3.1 µM; IC50 ([4]; 120 h, Table 6, Day 5, read-out: Effect on Albumin Secretion, 50% Inhibitory Concentration (IC50)): 4.2 µM; IC50 ([4]; 168 h, Table 5, Day 7, read-out: Effect on Albumin Secretion, 50% Inhibitory Concentration (IC50)): 3.2 µM; IC50 ([4]; 168 h, Table 6, Day 7, read-out: Effect on Albumin Secretion, 50% Inhibitory Concentration (IC50)): 1.8 µM; IC50 ([4]; 216 h, Day 9, read-out: Effect on Cellular ATP Concentrations, 50% Inhibitory Concentration (IC50)): 8.1 µM; IC50 ([4]; 216 h, Table 5, Day 9, read-out: Effect on Albumin Secretion, 50% Inhibitory Concentration (IC50)): 2.4 µM; IC50 ([4]; 216 h, Table 6, Day 9, read-out: Effect on Albumin Secretion, 50% Inhibitory Concentration (IC50)): 1.8 µM; IC50 ([4]; 288 h, Table 6, Day 12, read-out: Effect on Albumin Secretion, 50% Inhibitory Concentration (IC50)): 1.3 µM; IC50 ([4]; 384 h, Table 6, Day 16, read-out: Effect on Albumin Secretion, 50% Inhibitory Concentration (IC50)): < 1 µM; IC50 ([4]; 504 h, Day 21, read-out: Effect on Cellular ATP Concentrations, 50% Inhibitory Concentration (IC50)): 0.1 µM; IC50 ([4]; 504 h, Table 6, Day 21, read-out: Effect on Albumin Secretion, 50% Inhibitory Concentration (IC50)): < 1 µM; cytotoxicity to human co-cultured hepatocytes (in words) ([4]; text b588): highly cytotoxic
